Active and inactive are the calls of the source.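 Rule for the calls: active = compounds giving half or more protection of infected cells from virus-caused growth loss, again on retest; inactive = the rest.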 Where a SMILES comes first, the peptide text is derived from it. The star is where a group is joined. Cbz = O=C(OCc1ccccc1)*; Boc = CC(C)(C)OC(=O)*; Bn = c1ccc(C*)cc1
System: CEM cells HIV-1 protection, formazan growth assay
Test: NCI AIDS Antiviral Assay
Conditions: for IC50: measured here: growth of uninfected CEM cells
In short: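 Protection of CEM cells against HIV-1 was scored from cell growth (soluble formazan) across five concentrations, with parallel uninfected cells. Lack of protection may reflect toxicity.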

Row | SMILES | EC50 | IC50 | outcome
1 | Clc1nc(Cl)nc(-c2cccn2-c2ccccc2)n1 | > 200 µM | 129 µM | 
2 | CCCCCCCCP(=O)(O)OP(=O)(O)OCC1OC(n2ccc(N)nc2=O)C(O)C1O (centres undefined) | > 200 µM | > 200 µM | 
3 | Cn1c(=O)cc(NCc2ccc(Cl)cc2)[nH]c1=O | > 200 µM | 195 µM | 
4 | CC1(C)C2CCC(CN)(C2)C1N (centres undefined) | > 200 µM | > 200 µM | 
5 | CC(CS(C)(=O)=O)S(=O)(=O)O (centres undefined) | > 200 µM | > 200 µM | 
6 | CC(C)(C)OC(=O)NC(Cc1ccc(OCc2ccccc2)cc1)C(=O)NC(CCCCNC(=O)OCc1ccccc1)C(=O)O (centres undefined) (Boc-Tyr(Bn)-Lys(Cbz)-OH; configuration not given here) | > 200 µM | 75.9 µM | 
7 | CC(C)CCC[C@@H](C)[C@H]1CC[C@H]2C3=C[C@H](OS(=O)(=O)O)[C@@]4(O)C[C@@H](O)CC[C@]4(C)[C@@]3(O)CC[C@]12C | > 200 µM | 97.7 µM | 
8 | COc1cc2c(c(OC)c1OC)C(=O)[C@@H]1[C@H]2N1C(N)=O | > 200 µM | 4.17 µM | 
9 | NCCn1cnc2nc(NC(=O)c3ccccc3)[nH]c(=O)c21 | > 166 µM | 91.2 µM | 
10 | S=C1NC2=C(CSC/C2=C\c2ccc(Cl)cc2)C(c2ccc(Cl)cc2)N1 (centres undefined) | > 200 µM | 15.8 µM | 
11 | CCC(C)CC(C)CC(C)/C=C(\C)C1=C(C)CC(C)(O)O1 (centres undefined) |  |  | inactive
12 | O=C1CN(N2C(=O)CSC2C23CC4CC(CC(C4)C2)C3)C(=O)CN1c1ccccc1 (centres undefined) | > 151 µM | > 151 µM | 
13 | NC(=O)C(N/N=C(/C(=O)c1ccccc1)c1ccccc1)c1ccccc1 (centres undefined) | > 200 µM | 44.7 µM | 
14 | N#CC1=C(N)OC(c2cccc([N+](=O)[O-])c2)C1(C#N)C#N (centres undefined) | > 200 µM | 15.5 µM | 
15 | Cc1cccc(Nc2cn(COCc3ccccc3)c(=O)[nH]c2=O)c1 | > 200 µM | 81.3 µM | 
16 | CCOC1OC(COC(=O)C(C)(C)C)C(O)CC1n1cc(C)c(=O)[nH]c1=O (centres undefined) | > 200 µM | > 200 µM | 
17 | C[n+]1c(/C=C/c2ccc3c(c2)OCO3)ccc2ccccc21 | > 200 µM | 5.89 µM | 
18 | COCCCC(=O)NC(c1ccccc1)(c1ccccc1)c1ccccc1 | > 200 µM | > 200 µM | 
19 | CC[C@@H]1CC2CN3CCc4c([nH]c5cc(OC)ccc45)C(C(=O)OC)(C2)C13 (some centres undefined) |  |  | inactive
20 | CCN=C(c1ccc(NC(=O)c2ccc(C(=O)Nc3ccc(C(=NCC)N(CC)CC)cc3)cc2)cc1)N(CC)CC | > 200 µM | 64.6 µM | 
21 | COc1ccc(S(=O)(=O)Cc2ccc(C(=O)O)cc2[N+](=O)[O-])cc1 | > 708 µM | 646 µM | 
22 | CCOP(=O)(Nc1ccccc1P(=O)(OCC)OCC)OCC | > 200 µM | > 200 µM | 

Row | SMILES | EC50 | IC50 | outcome
23 | CCC(C)(C)OC(=O)CC[C@@H](C)[C@H]1CC[C@H]2[C@@H]3CCC4CC(O)CC[C@]4(C)[C@H]3CC[C@]12C (some centres undefined) | > 200 µM | 27.5 µM | 
24 | CN(C)CC(CO)(CN(C)C)CN(C)C | > 200 µM | > 200 µM | 
25 | Nc1ccc(N=Nc2ccc(-c3ccc(N=Nc4c(S(=O)(=O)O)cc5cc(S(=O)(=O)O)c(N=Nc6ccccc6)c(O)c5c4N)cc3)cc2)c2ccc(S(=O)(=O)O)cc12 |  |  | inactive
26 | Cn1c(=O)nc2n(CCO)c(-c3ccccc3)c(-c3ccccc3)nc-2c1=O | > 200 µM | > 200 µM | 
27 | c1cc2nnc1SCCSCCSCCSc1ccc(nn1)SCCSCCSCCS2 | > 200 µM | > 200 µM | 
28 | CC(=O)OCC1OC(N2C(C)=C(C(C)=O)C(c3ccc(Cl)cc3)C(C#N)=C2S)C(OC(C)=O)C(OC(C)=O)C1OC(C)=O (centres undefined) | > 200 µM | 29.5 µM | 
29 | Cc1c2c(oc(=O)c1NC(=O)c1ccccc1)CCCCCC2 | > 200 µM | > 200 µM | 
30 | CN1CCN(c2ccc3nc(-c4ccc5nc(-c6ccc(O)cc6)[nH]c5c4)[nH]c3c2)CC1 | > 501 µM | 3.89 µM | 
31 | COc1ccc(C2=CSC3=NC(C)(C)CC(C)=NN23)cc1 | > 316 µM | 170 µM | 
32 | Cn1nc(Br)c(=O)n(C(c2ccccc2)c2ccccc2)c1=O | > 69.2 µM | 22.9 µM | 
33 | N#CC1(Cl)CC2CC1C1N=NN(c3ccccc3)C21 (centres undefined) | > 200 µM | > 200 µM | 
34 | NC(=O)NC1=NCCC(=O)N1CCc1c[nH]c2ccccc12 | > 200 µM | 12.3 µM | 
35 | COc1ccc(N=C/C=C/C(=C/COC(C)=O)OC(C)=O)cc1 | > 200 µM | 11.5 µM | 
36 | Nc1nc2c(-c3ccc([N+](=O)[O-])cc3)nnn2c2ccccc12 | > 4.68 µM | > 4.68 µM | 
37 | O=S(=O)(O)CN(CCN(CS(=O)(=O)O)CS(=O)(=O)O)CS(=O)(=O)O | > 200 µM | 20.4 µM | 
38 | CN(C)CCC(O)(c1ccccc1)C(O)(CCN(C)C)c1ccccc1 (centres undefined) | > 72.4 µM | > 72.4 µM | 
39 | NS(=O)(=O)c1ccc(NC(=S)/N=C/C2=C(O)c3ccccc3C2=O)cc1 | > 200 µM | 52.5 µM | 
40 | Clc1nc2nc3ccccc3nc2nc1Cl | > 100 µM | 77.6 µM | 
41 | NC(=O)NCNC(N)=O | > 676 µM | > 676 µM | 
42 | Cc1cn([C@H]2C[C@@H]3[C@@H](COC(CCC[Se]c4ccccc4)N3O)O2)c(=O)[nH]c1=O (some centres undefined) | 13.2 µM | 117 µM | 
43 | NC1c2ccccc2Nc2ccccc21 | > 182 µM | 1.29 µM | 
44 | O=C(Nc1ccc([N+](=O)[O-])cc1[N+](=O)[O-])C(=O)C(C(=O)c1ccc2ccccc2c1)C1OC(=O)c2ccccc21 (centres undefined) | > 66.1 µM | 19.5 µM | 

Row | SMILES | EC50 | IC50 | outcome
45 | CC1=C2C(=O)c3ccccc3C2=C(C)S(=O)(=O)O1 | > 955 µM | 832 µM | 
46 | Cc1cccc(C(C)(C)C)c1NC(=O)CC1Sc2ccccc2NC1=O (centres undefined) | > 51.3 µM | > 51.3 µM | 
47 | Cc1ccc(N2C(=O)N(c3ccc(C)cc3)C3(Sc4ccccc4N3C)C2=O)cc1 (centres undefined) | > 12.6 µM | > 12.6 µM | 
48 | CC1(C)[C@H](C(=O)O)N2C(=O)[C@@H](NS(=O)(=O)c3ccc([N+](=O)[O-])cc3)[C@H]2S1(=O)=O | > 200 µM | 195 µM | 
49 | CCOP(=O)(OCC)c1ccc(=O)[nH]c1-c1cccs1 | > 200 µM | > 200 µM | 
50 | Nc1ccc(C(=O)NN2C(=O)C(Cl)C2c2ccc([N+](=O)[O-])cc2)cc1 (centres undefined) | > 200 µM | 4.07 µM | 
51 | Cc1cc(C=O)c(C)c2c1[nH]c1ccccc12 | > 200 µM | 7.59 µM | 
52 | CC(=O)Nc1oc(C)c(C)c1S(=O)(=O)c1ccc(Cl)cc1 | > 200 µM | 107 µM | 
53 | CC(=O)NC(CCCN)C(=O)NCc1ccccc1 (centres undefined) | > 955 µM | > 955 µM | 
54 | O=C(O)CCSC(=O)Nc1ccccc1 |  |  | inactive
55 | C=CCCCC(C)(C(=O)OC(C)(C)C)C1=NOC(C)(C)C1 (centres undefined) | > 200 µM | > 200 µM | 
56 | Cc1cccc2c(=O)c3ccccc3oc12 | > 170 µM | > 170 µM | 
57 | COc1nc(NC2OC(CO)C(O)C(O)C2O)cc(=O)[nH]1 (centres undefined) |  |  | inactive
58 | CS(=O)(=O)CS(=O)CS(=O)CS(=O)CC(NC(=O)CCC(N)C(=O)O)C(=O)O (centres undefined) | > 513 µM | > 513 µM | 
59 | Cc1ccccc1NC(=O)CC(=O)N1N=C(N(CCC#N)c2ccccc2Cl)CC1c1ccccc1 (centres undefined) | > 263 µM | > 263 µM | 
60 | CC(C)CN1CC(C)C(=O)NC1=O (centres undefined) |  |  | inactive
61 | [N-]=[N+]=NCC(O)Cn1cnc2c(NC(=O)c3ccccc3)ncnc21 (centres undefined) | > 741 µM | 427 µM | 
62 | O=C(COC(=O)c1cccc2c(=O)c3ccccc3[nH]c12)Nc1ccc(C(=O)O)cc1 |  |  | inactive
63 | CCCCc1c2c([n+]([O-])c3c1CCCC3)CCCC2 | > 138 µM | 22.4 µM | 
64 | CC(=O)c1ccc(N=NN2CCCC2)cc1 | > 200 µM | 89.1 µM | 
65 | Cc1cc(C2(c3cc(C)c(O)c(Br)c3)OS(=O)(=O)c3ccccc32)cc(Br)c1O | > 200 µM | > 200 µM | 
66 | C=CCOc1ccc(C2(O)c3ccccc3C3=NCCCN32)cc1 (centres undefined) | > 200 µM | 148 µM | 

Row | SMILES | EC50 | IC50 | outcome
67 | CCN(CC)C(=O)C(C)=O | > 1740 µM | > 1740 µM | 
68 | O=C1CCC(=O)N1CNc1cccc(NCN2C(=O)CCC2=O)c1 | > 39.8 µM | > 39.8 µM | 
69 | COc1ccc(/C=C/C(=O)N[C@@H]2CCN3CCCC23)cc1 (some centres undefined) |  |  | inactive
70 | NC(C(=O)O)C(O)C(=O)O (centres undefined) |  |  | inactive
71 | COc1ccc(/C=C(\C(=O)OCC(C)C)c2ccc(OC)c(OC)c2)cc1OC | > 200 µM | 166 µM | 
72 | S=C(SSSC(=S)N(C1CCCCC1)C1CCCCC1)N(C1CCCCC1)C1CCCCC1 |  |  | inactive
73 | COc1ccc(-c2oc(C=Nc3ccccc3)c([N+](=O)[O-])c2-c2ccc(OC)c(OC)c2)cc1OC | > 45.7 µM | > 45.7 µM | 
74 | COc1ccc(C(=O)c2ccc(OC)c3ccccc23)c2ccccc12 | > 200 µM | 1.51 µM | 
75 | CCCCC1(C(=O)OCC)OC12CCCCC2 (centres undefined) | > 200 µM | > 200 µM | 
76 | CCCN1CC=C(c2cc(C(=O)OCC)[nH]c2-c2cc(C)no2)C1=O | > 200 µM | 107 µM | 
77 | COc1cccc(C2c3cc4c(cc3OC(NNS(=O)(=O)c3ccc(C)cc3)C2C)OCO4)c1O (centres undefined) | > 200 µM | 10.5 µM | 
78 | Cc1ccc(S(=O)(=O)N(/N=C(\N)Oc2ccc(Cl)cc2)C(=N)Oc2ccc(Cl)cc2)cc1 | > 100 µM | > 100 µM | 
79 | CO/C(=N\N=C\c1ccc(Cl)cc1Cl)c1ccncc1 | > 21.9 µM | > 21.9 µM | 
80 | Nc1ccccc1C(=O)/C=C/c1c(O)ccc2ccccc12 |  |  | inactive
81 | CCCC(O)S(=O)(=O)O (centres undefined) | > 200 µM | > 200 µM | 
82 | COc1ccc(-c2c(N)n(-c3cccc(C(=O)O)c3)c(=O)c3cc([N+](=O)[O-])ccc23)cc1 | > 200 µM | 129 µM | 
83 | CC1C(c2ccc3c(c2)OCO3)CC(Cl)CC12C=C1OCOC1=CC2=O (centres undefined) | > 69.2 µM | 47.9 µM | 
84 | O=C(/C=C/c1ccc([N+](=O)[O-])cc1)c1nc2ccccc2[nH]1 | > 200 µM | 4.37 µM | 
85 | Cc1cc(C)nc(NS(=O)(=O)c2ccc(NC(=O)c3ccccc3SC(=O)CCCC[n+]3ccccc3)cc2)n1 | 17 µM | 51.3 µM | 
86 | Cc1nnc(Nc2ccccc2)o1 |  |  | inactive
87 | O=c1[nH]c2nc3ccccc3c(=O)n2/c1=C/c1cccs1 | > 200 µM | 110 µM | 
88 | COc1cc2c(cc1O)-c1[nH]ncc1CCC2 | > 43.7 µM | > 43.7 µM | 
